This data set in a line: Maximum tolerated dose in Sprague-Dawley rats. Type of data set: in vivo, rat. Conditions: highest dose 10 mg/kg IV on day zero. As to the method: Figure 7 Maximum tolerated dose in rats Sprague-Dawley rats (4 per arm) were dosed IV on day zero with vehicle or 2.5, 5, or 10 mg/kg of QBS10072S. Animals were monitored for two weeks for body weight changes (A), survival (B), and complete blood counts, including white blood cells (C), neutrophils (D), lymphocytes (E), red blood cells (F), platelets (G), and reticulocytes (H). Cell count results are expressed as cell count per μl. The normal cell count range for each type of cell is between the “max” and “min” lines, and the average value is indicated with a dotted line. Based on allometric scaling, 2.5, 5, and 10 mg/kg in rats is equivalent to 5, 10, and 20 mg/kg.

For `Cc1ccc(N(CCCl)CCCl)cc1C[C@H](N)CC(=O)O` [QBS10072S, (+)-(3S)-amino-4-[5-[bis(2-chloroethyl)amino]-2-methyl-phenyl]butanoic acid], the maximum tolerated dose result was “the highest dose was greater than the maximum tolerated dose”.

These data come from paper PMC8482806, “A Novel Blood-Brain Barrier-Permeable Chemotherapeutic Agent for the Treatment of Glioblastoma” (Cureus, 2021).
